Here are results for 10 compounds from patent publication US6787653B2, “Preparation process of biphenylcarboxylic acid amide derivatives” (Kowa Co., Ltd., priority 2002, dated 2004).

pIC50: −log10 of the molar value. Where a name gives a salt, the structure may show the parent alone.

The pIC50 is the IC50 on a negative log10 scale, so that one unit is a factor of ten. In general, melting point refers to the temperature of the solid-liquid transition.

The test system of one series is IgE antibody production by B cells. Briefly: Evaluation of inhibitory activity against IgE antibody production. The class given is cell-based. To be noted: B-cell; mouse (Balb/C) spleen B cells cultured with LPS and mouse IL-4; IgE in culture supernatant by ELISA. How it is done: After the spleen was enucleated from a mouse (Balb/C, male, aged 8 weeks) and shredded in 0.3 wt. % BSA/HBSS, single cells were obtained using a 200-mesh screen. The single cells were then hemolyzed by a 0.75 wt. % ammonium chloride·17 mmol/L Tris solution and a splenocyte suspension (1×10^7/mL) was prepared using RPMI 1640 medium/25 mmol/L HEPES/0.3 wt. % BSA. After the suspension was reacted with a rat anti-mouse Thy-1,2 monoclonal antibody (product of Cedarlane Co.) at 4° C. for 1 hour, the reaction mixture was centrifuged and the sediment cells were suspended again (1×10^7/mL, RPMI/HEPES/BSA). After the suspension-was reacted with a low-cytotoxic rabbit complement (product of Cedarlane Co.) at 37° C. for 1 hour, killed cells were removed by specific gravity centrifugation using lympholyte M (product of Cedarlane Co.) to obtain a B cell fraction as viable cells.
After culturing B cells ([…]) for one day together with LPS (E. coli 026:B6, product of DIFCO Co.) on a 96-well plate, mouse IL-4 (product of Genzyme Co.) was added. The mixture was cultured for further 7 days. Each test compound was added on the first day of the culture. After culturing, the amount of IgE antibody in a culture supernatant was assayed by ELISA, and the inhibitory activity of the test compound against production of an IgE antibody was calculated.
`COc1cc(-c2ccc(C(=O)N3CCN(CCCN4CCN(C(=O)c5ccc(-c6cc(OC)c(OC)c(OC)c6)cc5)CC4)CC3)cc2)cc(OC)c1OC` [Example 1, 1,3-Bis[4-[4-(3,4,5-trimethoxyphenyl)benzoyl]-1-piperazinyl]propane Dihydrochloride] had a pIC50 of 7.00.

As to `COc1cc(-c2ccc(C(=O)N3CCN(CCCN4CCN(C(=O)c5ccc(-c6cc(OC)c(OC(C)C)c(OC)c6)cc5)CC4)CC3)cc2)cc(OC)c1OC(C)C` [Example 2, 1,3-Bis [4-[4-(4-isopropoxy-3,5-dimethoxyphenyl)benzoyl]-1-piperazinyl]propane Dimethanesulfonate], the pIC50 is 6.70.

As to `COc1cc(-c2ccc(C(=O)N3CCN(CCCN4CCN(C(=O)c5ccc(-c6cc(OC)c(SC)c(OC)c6)cc5)CC4)CC3)cc2)cc(OC)c1SC` [Example 3, 1,3-Bis[4-[4-(3,5-dimethoxy-4-methylthiophenyl)benzoyl]-1-piperazinyl]propane Dihydrochloride], the pIC50 is 7.10.

Regarding `CCOc1c(OC)cc(-c2ccc(C(=O)N3CCN(CCCN4CCN(C(=O)c5ccc(-c6cc(OC)c(OCC)c(OC)c6)cc5)CC4)CC3)cc2)cc1OC` [Example 4, 1,3-Bis[4-[4-(4-ethoxy-3,5-dimethoxyphenyl)benzoyl]-1-piperazinyl]propane Dimethanesulfonate], the pIC50 is 6.40.

`COc1cc(-c2ccc(C(=O)N3CCN(CCCN4CCN(C(=O)c5ccc(-c6cc(OC)c(C(C)=O)c(OC)c6)cc5)CC4)CC3)cc2)cc(OC)c1C(C)=O` [Example 5, 1,3-Bis[4-[4-(4-acetyl-3,5-dimethoxyphenyl)benzoyl]-1-piperazinyl]propane Dihydrochloride] showed a pIC50 of 6.22.

Compound `CCCOc1c(OC)cc(-c2ccc(C(=O)N3CCN(CCCN4CCN(C(=O)c5ccc(-c6cc(OC)c(OCCC)c(OC)c6)cc5)CC4)CC3)cc2)cc1OC` [Example 6, 1,3-Bis[4-[4-(3,5-dimethoxy-4-propoxyphenyl)benzoyl]-1-piperazinyl]propane Dihydrochloride] had a pIC50 of 6.52.

Test system in the next series: not given
Assay: not given
Settings: not given
For the compound `COc1cc(-c2ccc(C(=O)N3CCN(CCCN4CCN(C(=O)c5ccc(-c6cc(OC)c(C(C)=O)c(OC)c6)cc5)CC4)CC3)cc2)cc(OC)c1C(C)=O` (as salt: hydrochloride) [Example 5, 1,3-Bis[4-[4-(4-acetyl-3,5-dimethoxyphenyl)benzoyl]-1-piperazinyl]propane Dihydrochloride], the melting point was 240 °C (dec.).

Consider `CCCOc1c(OC)cc(-c2ccc(C(=O)N3CCN(CCCN4CCN(C(=O)c5ccc(-c6cc(OC)c(OCCC)c(OC)c6)cc5)CC4)CC3)cc2)cc1OC` (as salt: hydrochloride) [Example 6, 1,3-Bis[4-[4-(3,5-dimethoxy-4-propoxyphenyl)benzoyl]-1-piperazinyl]propane Dihydrochloride], for which the melting point is 266 °C (dec.).

As for `COc1cc(-c2ccc(C(=O)N3CCN(CCCN4CCN(C(=O)c5ccc(-c6cc(OC)c(OC(C)C)c(OC)c6)cc5)CC4)CC3)cc2)cc(OC)c1OC(C)C` (as salt: methanesulfonate) [Example 2, 1,3-Bis [4-[4-(4-isopropoxy-3,5-dimethoxyphenyl)benzoyl]-1-piperazinyl]propane Dimethanesulfonate], the melting point was 235.5 °C (dec.).

As to `CCOc1c(OC)cc(-c2ccc(C(=O)N3CCN(CCCN4CCN(C(=O)c5ccc(-c6cc(OC)c(OCC)c(OC)c6)cc5)CC4)CC3)cc2)cc1OC` (as salt: methanesulfonate) [Example 4, 1,3-Bis[4-[4-(4-ethoxy-3,5-dimethoxyphenyl)benzoyl]-1-piperazinyl]propane Dimethanesulfonate], the melting point was 245 °C (dec.).
